# Reference: ChEMBL document CHEMBL3507680, “University of Dundee, Gates Library screen for HepG2 cell viability”
# Assay: Human HepG2 cell viability assay in 384 well format
# Format: toxicity, cell-based
# Set-up: dose 125 nL, time 70.5 hour; concentration not given beside the values
# Details: HepG2 cells, read-out: Inhibition
row,Compound,cytotoxicity at 70.5 h
1,CN1C[C@H](O)[C@]2(CCN(C(=O)COc3ccccc3)C2)S1(=O)=O,-5.4%
2,CN1C[C@@H](O)[C@]2(CCN(C(=O)c3ccccc3)C2)S1(=O)=O,-7.54%
3,CN1C[C@@H](O)[C@]2(CCN(C(=O)OCc3ccccc3)C2)S1(=O)=O,-10.5%
4,CNC(=O)CC1c2cccnc2C(=O)N1Cc1ccccc1 (stereo not drawn),-4.81%
5,NC(=O)CC1c2cccnc2C(=O)N1Cc1ccccc1 (stereo not drawn),-6.46%
6,CCCC(O)CN1CCC(=O)N(CCOC)Cc2ccccc21 (stereo not drawn),-10.1%
7,CN1Cc2ccccc2N(CC(O)C(F)(F)F)CCC1=O (stereo not drawn),-6.68%
8,CN1Cc2cc(F)ccc2N(CC(O)C(F)(F)F)CCC1=O (stereo not drawn),11.8%
9,O=C1CCNc2ccc(F)cc2CN1Cc1ccccc1,2.31%
10,O=C1CCNc2ccc(F)cc2CN1Cc1ccco1,2.21%
11,O=C1CCNc2ccccc2CN1Cc1ccco1,-6.23%
12,COc1ccc2c(c1)CN(C)C(=O)CCN2CC(O)C(C)(C)C (stereo not drawn),-6.98%
13,O=C1CN(C(=O)OCc2ccccc2)CC(O)CN1Cc1ccco1 (stereo not drawn),12.1%
14,COc1ccccc1C(=O)N1CC(=O)N(Cc2ccco2)CC(O)C1 (stereo not drawn),-12.4%
15,CC(C)COC(=O)N1CC(=O)N(Cc2ccco2)CC(O)C1 (stereo not drawn),-3.84%
16,CCCC1CN(CCOc2ccccc2)C(=O)c2cccnc2O1 (stereo not drawn),4.28%
17,CC(C)CN1C[C@H](COCc2ccccc2)Oc2ncccc2C1=O,23.1%
18,CNC(=O)[C@@H]1[C@@H](OC(=O)Nc2ccccc2)C(=O)N(C)C12CCNCC2,-2.76%
19,CCS(=O)(=O)N1CCC(OC)c2ccccc2N(CC(=O)NC)C(=O)C1 (stereo not drawn),-1.92%
20,OCC1N(Cc2ccco2)[C@H]2CC[C@]1(O)CC2 (stereo partly drawn),-9.15%
21,COCC1N(C(=O)c2ccc3c(c2)OCCCO3)[C@H]2CC[C@]1(O)CC2 (stereo partly drawn),-6.94%
22,CCOC(=O)C1CC2(CCOCC2)N2CCC(=O)N12 (stereo not drawn),-6.97%

row,Compound,cytotoxicity at 70.5 h
1,O=S1(=O)c2ccccc2C(O)CN1CCO (stereo not drawn),-5.7%
2,CCOC(=O)[C@@H]1CN2CCNC[C@@H]2[C@H]1c1ccccc1,-7.39%
3,CCOC(=O)[C@@H]1[C@@H](c2ccccc2)CN2CCN(C(=O)N(C)C)C[C@H]12,-5.43%
4,CCOC(=O)[C@@H]1[C@H]2CN(C(=O)OC)CCN2C[C@H]1c1ccccc1,-5.21%
5,CCCC(O)CN1CCC(=O)N(Cc2ccccc2)Cc2ccccc21 (stereo not drawn),2.6%
6,COCC(O)CN1CCC(=O)N(Cc2ccco2)Cc2ccccc21 (stereo not drawn),26.6%
7,COc1ccc(CN2CC(O)CN(C(=O)CC(C)C)CC2=O)cc1 (stereo not drawn),4.85%
8,CC(O)CN1CC(C)(C)CN(C(=O)CCc2ccccc2)CC1=O (stereo not drawn),-2.42%
9,CN1CC(C)(C)CN(C(=O)CCc2ccccc2)CC1=O,-1.8%
10,Cc1ccc(CN2CC(O)CN(C(=O)C3CC3)CC2=O)cc1 (stereo not drawn),-5.26%
11,COc1cccc(OC)c1C(=O)N1CC(=O)N(C2CCC2)CC(O)C1 (stereo not drawn),-0.00128%
12,CCOc1ccccc1C(=O)N1CC(=O)N(C2CCC2)CC(O)C1 (stereo not drawn),-4.81%
13,COc1ccc(C(=O)N2CC(=O)N(C3CCC3)CC(O)C2)cc1OC (stereo not drawn),-5.23%
14,O=C1CN(C(=O)c2cccc(C(F)(F)F)c2)CC(O)CN1CC1CC1 (stereo not drawn),20.9%
15,CCN1CC(O)CN(C(=O)c2cccc(C(F)(F)F)c2)CC1=O (stereo not drawn),-4.06%
16,CCN1CC(O)CN(C(=O)c2ccc(SC)cc2)CC1=O (stereo not drawn),-4.25%
17,N#CCCN1CC(O)CN(C(=O)c2cccc(C(F)(F)F)c2)CC1=O (stereo not drawn),-1.43%
18,COC1CCN(C(=O)NCC(N)=O)CC(=O)N(C)c2ccccc21 (stereo not drawn),-5.28%
19,O=C(C1CC1)N1CCN2C[C@@H](CO)[C@H](c3ccccc3)[C@H]2C1,8.58%
20,NC(=O)[C@@H]1CN2CCN(C(=O)C3CC3)C[C@@H]2[C@H]1c1ccccc1,-2.24%
21,CNC(=O)[C@@H]1[C@@H](c2ccccc2)CN2CCN(Cc3ccccn3)C[C@H]12,-7.27%
22,O=C(C1CC1)N1CCN2C[C@H](c3ccccc3)[C@@H](CO)[C@H]2C1,-5.2%

row,Compound,cytotoxicity at 70.5 h
1,CC(C)COC(=O)N1CC(=O)N(CCc2ccccc2)CC(O)C1 (stereo not drawn),25.4%
2,COc1ccc(CN2CC(O)CN(C(=O)OCC(C)C)CC2=O)cc1 (stereo not drawn),14.8%
3,COc1cccc(CN2CC(O)CN(C(=O)C(C)(C)C)CC2=O)c1OC (stereo not drawn),50.4%
4,CC(C)COC(=O)N1CC(=O)N(Cc2ccc(Cl)cc2)CC(O)C1 (stereo not drawn),-3.08%
5,COc1ccccc1CN1CC(O)CN(S(=O)(=O)C(C)C)CC1=O (stereo not drawn),16.7%
6,CCOC(=O)N1CC(=O)N(CCc2ccccc2)CC(O)C1 (stereo not drawn),5.59%
7,COC1CN(C(=O)C2CC2)CCC(=O)N(C)c2ccccc21 (stereo not drawn),2.56%
8,COC1CN(C(=O)CC(C)C)CCC(=O)N(C)c2ccccc21 (stereo not drawn),-7.01%
9,COC1CN(C(=O)COC(C)=O)CCC(=O)N(C)c2ccccc21 (stereo not drawn),-5.15%
10,COC1CN(C(=O)CC2CCCC2)CCC(=O)N(C)c2ccccc21 (stereo not drawn),21.5%
11,COC1CN(C(=O)NCC(N)=O)CCC(=O)N(C)c2ccccc21 (stereo not drawn),-7.69%
12,COCC(=O)N1CCC(=O)N(C2CCCC2)Cc2cc(F)ccc21,-5.37%
13,O=C(O)CCCC(=O)N1CCC(c2noc3cc(F)ccc23)CC1,-13.8%
14,O=C(NC1CCC1)[C@H]1C[C@@H]2CN(S(=O)(=O)c3ccccc3)C[C@H]1O2,-1.64%
15,CC(C)OC[C@H]1CCC[C@]12CN(S(=O)(=O)C1CC1)CCO2,-0.771%
16,COCCN1CCc2ncc(CN(C)C)n2CC1,-0.491%
17,Cc1cnc(N2C[C@@H]3[C@@H](C2)OCC(=O)N3C)nc1,-8.76%
18,COCCN1CCc2ncc(CNc3cc(N(C)C)ncn3)n2CC1,-8.47%
19,Cc1nc(CN2CCc3nc(NC(C)C)nc(C)c3C2)cs1,-6.71%
20,CN(C)CCN1C(=O)CO[C@@H]2CN(c3ncc(F)cn3)C[C@H]21,-6.29%
21,COCC(=O)N1CCC2(CC1)CC(N1CCN(C)CC1)CO2 (stereo not drawn),14.5%
22,Cc1ccc2c(c1)C1(CCNCC1)CC2N1CCOCC1 (stereo not drawn),1.67%

row,Compound,cytotoxicity at 70.5 h
1,CCN(C)C(=O)c1ccc2c(c1)C(c1nc[nH]n1)CN2S(C)(=O)=O (stereo not drawn),-8.39%
2,CCc1cnc(NC2CCc3c(ccc(=O)n3C)C2)nc1 (stereo not drawn),-5.8%
3,CC(C)CS(=O)(=O)N1CCC2(CC1)CCn1c(-c3cnn(C)c3)cnc12,32.9%
4,CO[C@H]1CN(S(=O)(=O)c2cn(C)cn2)[C@@H]2CCCO[C@H]12,24.5%
5,CC(=O)N1CCC2(CC1)CN(C(=O)c1cccc3[nH]ccc13)CCO2,27.3%
6,Cc1cnc(NC2CCc3c(ccc(=O)n3CC3CC3)C2)nc1 (stereo not drawn),-5.47%
7,CCC(=O)N1CC[C@H]2C(=O)N(Cc3ccc(OC)cc3)CCO[C@H]2C1,34.1%
8,CC(C)n1nc(CNc2ncccn2)c2c1CN(S(C)(=O)=O)CC2,10.7%
9,Cc1cccc(CN2CC3C[C@]3(NC(=O)c3ccco3)C2)n1 (stereo partly drawn),-4.13%
10,COC[C@]12COC[C@H]1CN(C(=O)c1ccc(F)cc1C)C2,0.0363%
11,CCO[C@H]1CN(C(=O)c2ccc3c(c2)OCO3)[C@@H]2COC[C@H]12,-2.21%
12,Cc1ccc(CN2C[C@H](N(C)Cc3cncnc3)[C@H]3OCCC[C@H]32)o1,-10.1%
13,CN(C)CCO[C@H]1CN(C(=O)c2ccc3c(c2)OCO3)[C@@H]2COC[C@H]12,-11.6%
14,Cc1cc(F)ccc1C(=O)N1C[C@@H]2COC[C@]2(COCC2CC2)C1,-10.8%
15,O=C(CN1C=Nc2ccccc2S1(=O)=O)NCc1ccccc1F,-9.4%
16,CN(Cc1cccc(C(N)=O)c1)Cc1nc2c(cnn2C)c(=O)[nH]1,-15.8%
17,O=C(CN1C=Nc2ccccc2S1(=O)=O)NCc1ccccc1,-9.5%
18,CC(C)(C)NC(=O)NC(=O)CN1C=Nc2ccccc2S1(=O)=O,-8.6%
19,CN(Cc1cccc(C#N)c1)Cc1nc2c(cnn2C)c(=O)[nH]1,-19%
20,Cc1noc(Cl)c1CCC(=O)N1CCN(Cc2ccncc2)CC1,-4.95%
21,COc1cc(CCC(=O)NCC2CC2)ccc1OCC(F)(F)F,-11.6%
22,Cc1noc(Cl)c1CCC(=O)N1CCN(CC(C)(C)O)CC1,7.84%

row,Compound,cytotoxicity at 70.5 h
1,Cc1cnn(CCNCC(=O)NCCOc2ccc(Cl)cc2)c1,-13%
2,O=C(CN1C=Nc2ccccc2S1(=O)=O)NCCCc1ccccc1,-12.6%
3,Cc1noc(Cl)c1CCC(=O)N1CCN(c2cnccn2)CC1,-16.7%
4,CCN(CC)C(=O)C1CCC2(CCNCC2)O1 (stereo not drawn),-12.5%
5,CCN(CC)C(=O)C1CCC2(CCNCC2)CO1 (stereo not drawn),-14.2%
6,c1cnc(N2CCCn3nnc(COCC4CC4)c3C2)nc1,-1.29%
7,Cn1ccc(CN2CCC3(CC2)CC(Nc2cnccn2)CO3)n1 (stereo not drawn),-1.03%
8,COCCN1CCC2(CC1)CC(Nc1ccc(C)nn1)CO2 (stereo not drawn),-2.32%
9,CCCS(=O)(=O)N1CCC2(CC1)CC(N1CCCC1)c1ccccc12 (stereo not drawn),-8.52%
10,CN(C)CCN1C(=O)CC[C@@H]2[C@H]1CCN2C(=O)c1ccc(C#N)cc1,-7.83%
11,Cc1nnc([C@]23COC[C@H]2CN(Cc2nccs2)C3)o1,-10.3%
12,CS(=O)(=O)N[C@@H]1CCO[C@]2(CCN(CC3CCOCC3)C2)C1,-5.05%
13,CS(=O)(=O)N[C@H]1CCO[C@]2(CCN(CC3CCOCC3)C2)C1,-11.1%
14,CC(=O)N1Cc2nccn2CC(CNC(=O)c2cccnc2)C1 (stereo not drawn),-11.5%
15,CN(C)Cc1noc2c1CN(Cc1ccsc1)CC2,-5.59%
16,Cc1ccc(C(=O)N2CC[C@@H]3[C@H]2CCC(=O)N3CCN(C)C)cn1,18.5%
17,CC(=O)N(C)Cc1nn(C)c2c1CN(Cc1ccsc1)C2,-6.65%
18,c1ccc(CN2CCc3ncnc(C4CC4)c3CC2)nc1,-1.29%
19,CCO[C@@H]1C[C@H]2CN(Cc3ccc(C)o3)CCN2C1,-11.9%
20,c1csc(CN2CCO[C@@H]3CN(C4CCOCC4)C[C@@H]3C2)c1,-10%
